Laboratory results: the supplement of paper PMC10307832

Columns and labels:
Assay in all cases: relative viability (nuclei count vs DMSO), 5 days (fraction); higher = more cells survive
[1] = compound: O=C(CCCCCCNC(=O)c1cnc(N(c2ccccc2)c2ccccc2)nc1)NO [Ricolinostat] + Nc1ncn([C@H]2C[C@H](O)[C@@H](CO)O2)c(=O)n1 [Decitabine] (partner 2 µM)
Method in brief: (§1)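 Each reported value is a median over duplicate plates. It expresses relative viability: treated-well nuclei count divided by vehicle-well nuclei count. Lung cancer cell lines in 1536-well plates were dosed by pin tool a day after seeding, alone with one drug or with a fixed anchor-drug dose plus five library-drug doses (not always all listed) in √10 steps, and nuclei were counted after 5 days.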

[2] = compound: O=C(CCCCCCNC(=O)c1cnc(N(c2ccccc2)c2ccccc2)nc1)NO [Ricolinostat] + CC(=O)c1c(C)c2cnc(Nc3ccc(N4CCNCC4)cn3)nc2n(C2CCCC2)c1=O [Palbociclib] (partner 0.5 µM)
Method in brief: as §1

[3] = compound: O=C(CCCCCCNC(=O)c1cnc(N(c2ccccc2)c2ccccc2)nc1)NO [Ricolinostat] + Cc1nc(NC(=O)N2CCC[C@H]2C(N)=O)sc1-c1ccnc(C(C)(C)C(F)(F)F)c1 [Alpelisib] (partner 2 µM)
Method in brief: as §1

[4] = compound: CC1=CN2C(=O)C=C(N=C2C(=C1)C(C)NC3=CC=CC=C3)N4CCOCC4 [TGX 221] + Cc1cc(Nc2cc(N3CCN(C)CC3)nc(Sc3ccc(NC(=O)C4CC4)cc3)n2)n[nH]1 [Tozasertib] (partner 0.1 µM)
Method in brief: as §1

Cell Line	relative viability ([1]; first compound 0.08 µM)	relative viability ([1]; first compound 0.253 µM)	relative viability ([1]; first compound 0.8 µM)	relative viability ([1]; first compound 2.53 µM)	relative viability ([2]; first compound 0.08 µM)	relative viability ([2]; first compound 0.253 µM)	relative viability ([2]; first compound 0.8 µM)	relative viability ([2]; first compound 2.53 µM)	relative viability ([3]; first compound 0.08 µM)	relative viability ([3]; first compound 0.253 µM)	relative viability ([3]; first compound 0.8 µM)	relative viability ([3]; first compound 2.53 µM)	relative viability ([4]; first compound 0.08 µM)	relative viability ([4]; first compound 0.253 µM)	relative viability ([4]; first compound 0.8 µM)	relative viability ([4]; first compound 2.53 µM)	relative viability ([4]; first compound 8 µM)
201T	0.843	0.847	0.873	0.887	0.362	0.356	0.36	0.369	0.905	0.946	1.03	0.887	0.915	0.933	0.955	0.833	0.808
A549	0.314	0.259	0.306	0.246					0.537	0.805	0.663	0.631					
A-427	0.547	0.591	0.559	0.558	0.503	0.531	0.474	0.457	0.927	1.07	1.09	0.983	0.194	0.213	0.211	0.197	0.208
ABC-1	0.829	1.03	0.989	1.03	0.585	0.631	0.8	0.612	0.955	0.933	1.11	0.648	0.192	0.157	0.203	0.188	0.161
BEN	0.578	0.78	0.567	0.581	0.461	0.474	0.499	0.451	0.951	0.901	0.978	0.655	0.51	0.505	0.489	0.473	0.496
CAL-12T					0.443	0.464	0.413	0.43	1.1	0.998	1.15	0.912	0.324	0.329	0.322	0.314	0.2
COR-L23	0.402	0.493	0.358	0.332	0.261	0.227	0.203	0.156	0.651	0.689	0.571	0.407	0.168	0.222	0.187	0.164	0.179
COR-L 105	0.675	0.65	0.7	0.669	0.401	0.396	0.387	0.476	0.698	0.98	0.934	1.25	0.412	0.418	0.309	0.395	0.323
Calu-6									0.91	0.947	1.01	0.878					
ChaGo-K-1	0.58	0.495	0.51	0.509	0.93	0.947	0.901	0.837					0.22	0.202	0.216	0.219	0.191
EBC-1									0.57	0.737	0.699	0.414					
EKVX	0.31	0.322	0.299	0.346	0.358	0.42	0.408	0.422		0.883	0.882	0.942	0.381	0.343	0.329	0.317	0.272
EMC-BAC-2	0.796	0.938	0.901	0.722	0.525	0.496	0.47	0.405	0.644	0.669	0.768	0.816	0.255	0.318	0.296	0.307	0.275
EPLC-272H		0.36	0.368	0.325		0.325	0.332	0.237		0.891	1.04	0.7	0.187	0.275	0.282	0.186	0.138
H3255	0.522	0.598	0.538	0.426	0.336	0.307	0.292	0.33	0.517	0.651	0.678	0.661	0.449	0.529	0.692	0.563	0.613
HARA	0.335	0.408	0.464	0.405	0.269	0.288	0.238	0.248	0.545	0.79	0.693	0.618	0.147	0.105	0.123	0.1	0.0992
HCC-15	0.593	0.687	0.631	0.464	0.779	0.739	0.685	0.606	0.753	0.875	0.834	0.894	0.438	0.463	0.407	0.323	0.237
HCC-44	1	0.948	0.926	0.951	0.91	0.935	1.01	0.964	0.694	0.743	0.725	0.612		0.947	1.03	0.92	0.695
HCC-78		0.7	0.602	0.585		0.438	0.484	0.479		0.32	0.291	0.192	0.344	0.432	0.371	0.268	0.347
HCC-366	0.332	0.344	0.342	0.329	0.383	0.335	0.344	0.257	0.223	0.407	0.398	0.433	0.0834	0.113	0.283	0.0517	0.0636
HCC-827	0.32	0.327	0.233	0.274	0.335	0.548	0.487	0.573	0.615	0.938	0.935	0.985	0.414	0.436	0.424	0.401	0.349
HOP-62	0.217	0.186	0.144	0.221	0.457	0.406	0.355	0.416	0.932	0.901	0.844	0.848	0.372	0.416	0.34	0.387	0.316
IA-LM									0.616	0.819	0.623	0.363					

Cell Line	relative viability ([1]; first compound 0.08 µM)	relative viability ([1]; first compound 0.253 µM)	relative viability ([1]; first compound 0.8 µM)	relative viability ([1]; first compound 2.53 µM)	relative viability ([2]; first compound 0.08 µM)	relative viability ([2]; first compound 0.253 µM)	relative viability ([2]; first compound 0.8 µM)	relative viability ([2]; first compound 2.53 µM)	relative viability ([3]; first compound 0.08 µM)	relative viability ([3]; first compound 0.253 µM)	relative viability ([3]; first compound 0.8 µM)	relative viability ([3]; first compound 2.53 µM)	relative viability ([4]; first compound 0.08 µM)	relative viability ([4]; first compound 0.253 µM)	relative viability ([4]; first compound 0.8 µM)	relative viability ([4]; first compound 2.53 µM)	relative viability ([4]; first compound 8 µM)
LC-2-ad	0.776	0.784	0.842	0.835	0.52	0.418	0.465	0.488	0.786	0.853	0.839	0.663	0.451	0.479	0.454	0.402	0.396
LCLC-97TM1	0.225	0.185	0.214	0.227	0.198	0.202	0.232	0.212	0.177	0.288	0.188	0.306	0.214	0.179	0.191	0.239	0.143
LCLC-103H	0.726	0.745	0.76	0.739	0.472	0.413	0.495	0.514	0.814	0.971	0.883	0.959	0.409	0.466	0.465	0.434	0.354
LK-2	0.268	0.364	0.24	0.212	0.774	0.548	0.599	0.605		0.995	1.07	1.62	0.203	0.202	0.182	0.187	0.161
LOU-NH91		0.794	0.826	0.887		0.526	0.587	0.514		0.735	0.709	0.699	0.713	0.653	0.697	0.675	0.562
LU99A	0.883	0.899	0.722	0.748	0.43	0.399	0.396	0.355	0.438	0.512	0.362	0.437	0.24	0.274	0.258	0.282	0.276
LXF-289	0.407	0.366	0.384	0.347	0.618	0.552	0.599	0.609	0.961	1	1.06	1.01	0.215	0.235	0.201	0.202	0.114
NCI-H23	0.325	0.316	0.319	0.323	0.532	0.509	0.448	0.615	0.56	0.644	0.882	0.703	0.461	0.393	0.386	0.322	0.241
NCI-H322M	0.616	0.708	0.721	0.754	0.495	0.493	0.478	0.52		0.829	0.795	0.715	0.513	0.468	0.446	0.442	0.44
NCI-H358	0.247	0.212	0.214	0.179	0.151	0.147	0.173	0.165	0.733	0.997	0.952	1.05	0.097	0.0915	0.103	0.108	0.0944
NCI-H441	0.28	0.227	0.202	0.214	0.213	0.233	0.2	0.234	0.597	0.596	0.803	0.539	0.605	0.569	0.737	0.611	0.695
NCI-H460	0.496	0.429	0.519	0.427	0.184	0.191	0.0967	0.0766	0.321	0.461	0.421	0.402	0.383	0.489	0.639	0.0964	0.131
NCI-H522	0.641	0.702	0.714	0.642	1.14	1.18	1.08	1.21					0.52	0.559	0.575	0.502	0.513
NCI-H596	0.992	0.981	0.99	1.67					0.429	0.492	0.446	0.463	0.94	0.944	0.91	0.864	0.61
NCI-H1299									1.06	0.99	0.988	0.944					
NCI-H1563									0.916	0.994	0.862	0.857					
NCI-H1623													0.446	0.404	0.472	0.466	0.419
NCI-H1648		0.506	0.486	0.316		0.305	0.252	0.196					0.422		0.563	0.406	0.45
NCI-H1650	0.489	0.346	0.358	0.311	0.322	0.294	0.344	0.275					0.399	0.412	0.381	0.297	0.235
NCI-H1703										0.316	0.401	0.377					
NCI-H2228					0.874	0.895	0.9	0.504	0.555	0.984	0.722	0.791	0.251	0.262	0.261	0.215	0.167
NCI-H2342	0.628	0.719	0.784	0.718	0.555	0.473	0.509	0.577					0.422	0.484	0.6	0.547	0.447
SW 900	0.517	0.433	0.368	0.401	0.432	0.481	0.453	0.487					0.657	0.749	0.824	0.636	0.453
